Measurements from US11786535B1, “Methods of inhibiting cyclooxygenase” (KING FAISAL UNIVERSITY, priority 2023, dated 2023).

How the values were obtained:
COX-2 = COX-2 (Homo sapiens (Human), UniProt P35354); assay: COX inhibitor screening assay kit, COX-2; assay type: biochemical; settings: for SI (selectivity index): calculated from COX-1 and COX-2 IC50; for IC50: three separate experiments
Protocol: (§1) In test tubes, 25 mM Tris-HCl, pH 8.0, containing 5 mM EDTA, phenol, and 1 mM hematin was added. The test compounds were dissolved in DMSO and added in concentrations ranging from […] Dimethyl sulfoxide alone was applied to control test containers. COX-1 or COX-2 enzymes were added to the test tubes, which were then preincubated for 10 minutes at 37° C. The arachidonic acid substrate was added, and the tubes were further incubated at 37° C. for 2 minutes. The compound's immunochemical assay was used to calculate the amount of prostaglandin produced.
(§2) Three separate experiments were used to calculate the IC50 values. The selectivity index was calculated as follows: […]

COX-1 = COX-1 (Ovis aries, UniProt P05979); assay: COX inhibitor screening assay kit, COX-1; assay type: biochemical; settings: three separate experiments
Protocol: as §1, §2

COX-1, sequence (P05979 25-600 limits assumed): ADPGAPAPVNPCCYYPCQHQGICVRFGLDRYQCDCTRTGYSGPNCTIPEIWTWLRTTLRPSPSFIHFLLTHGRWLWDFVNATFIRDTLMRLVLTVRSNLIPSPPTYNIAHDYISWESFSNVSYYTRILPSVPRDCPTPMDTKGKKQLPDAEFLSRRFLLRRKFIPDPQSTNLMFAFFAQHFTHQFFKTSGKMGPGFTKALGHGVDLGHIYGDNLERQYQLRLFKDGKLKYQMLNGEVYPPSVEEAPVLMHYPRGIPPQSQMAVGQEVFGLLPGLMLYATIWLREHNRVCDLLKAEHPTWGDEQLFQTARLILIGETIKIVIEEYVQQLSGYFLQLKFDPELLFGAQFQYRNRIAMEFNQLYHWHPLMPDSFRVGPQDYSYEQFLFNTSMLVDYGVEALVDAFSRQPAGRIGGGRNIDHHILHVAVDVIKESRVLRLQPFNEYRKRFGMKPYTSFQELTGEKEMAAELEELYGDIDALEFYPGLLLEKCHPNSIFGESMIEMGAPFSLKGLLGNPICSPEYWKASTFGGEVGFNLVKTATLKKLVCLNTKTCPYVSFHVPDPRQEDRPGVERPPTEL
COX-2, sequence (P35354 18-604): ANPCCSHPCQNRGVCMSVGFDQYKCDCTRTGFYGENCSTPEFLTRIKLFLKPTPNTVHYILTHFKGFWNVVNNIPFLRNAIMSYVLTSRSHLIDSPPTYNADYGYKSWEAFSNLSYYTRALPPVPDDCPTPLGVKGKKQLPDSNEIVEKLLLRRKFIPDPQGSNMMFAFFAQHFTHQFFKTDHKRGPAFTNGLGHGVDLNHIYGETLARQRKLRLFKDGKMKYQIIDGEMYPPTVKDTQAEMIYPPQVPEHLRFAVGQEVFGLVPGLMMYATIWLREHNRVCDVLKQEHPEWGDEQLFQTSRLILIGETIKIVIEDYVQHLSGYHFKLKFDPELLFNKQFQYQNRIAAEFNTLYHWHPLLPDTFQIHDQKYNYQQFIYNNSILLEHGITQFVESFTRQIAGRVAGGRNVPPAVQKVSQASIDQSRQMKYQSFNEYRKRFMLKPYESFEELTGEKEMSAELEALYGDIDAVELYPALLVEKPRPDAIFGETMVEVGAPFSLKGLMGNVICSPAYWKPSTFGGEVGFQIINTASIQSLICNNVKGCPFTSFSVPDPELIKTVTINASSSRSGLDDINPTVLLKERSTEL

| Structure (SMILES) | SI (selectivity index) (COX-2) | IC50 (COX-2) [nM] | IC50 (COX-1) [µM] |
| --- | --- | --- | --- |
| COc1ccc(CN(Cc2ccc(F)cc2)CC2CCCO2)cc1CO (stereo not drawn) [Compound 1] | 36.3 | 210 ± 10 | 7.62 ± 0.05 |
| COc1cccc(-c2nn(-c3ccccc3)cc2CN(C)CCc2cn[nH]c2)c1 [Compound 2, N-{[3-(3-methoxyphenyl)-1-phenyl-1H-pyrazol-4-yl]methyl}-N-methyl-2-(1H-pyrazol-4-yl)ethanamine] | 132.64 | 80 ± 9 | 10.6 ± 0.33 |
| O=C(O)CC1COCCN1Cc1cccc(-c2ccccn2)c1 (stereo not drawn) [Compound 3, {4-[3-(2-pyridinyl)benzyl]-3-morpholinyl}acetic acid] | 190.88 | 60 ± 75 | 11.5 ± 0.13 |
| O=C(O)COc1ccc(Cl)cc1C1CC(=O)Nc2cc3[nH]ncc3cc21 (stereo not drawn) [Compound 4, [4-chloro-2-(7-oxo-5,6,7,8-tetrahydro-1H-pyrazole[4,3-g]quinoline-5-yl)phenoxy]acetic acid] | 95.068 | 97 ± 15 | 9.19 ± 0.046 |
